Measured values reported in paper PMC12535076, “Neurotherapeutic effects of Vutiglabridin as a Paraoxonase-2 modulator in preclinical models of Parkinson’s disease” (Molecular Neurodegeneration, 2025).

Experiments:
[1] = target: T1, PON2 in mouse brain tissue (Mus musculus, UniProt Q62086); test: Cellular thermal shift assay (CESTA) of PON2 in brain tissue; format: binding
T1 construct: Brain tissue pieces were pulverized under frozen conditions in a mortar with liquid nitrogen; from tissue; host or cells: brain tissue of mice dosed orally with vehicle or Vuti for 5 days
Description: Interaction of PON2 and Vuti in mouse brain tissue was evaluated by Cellular Thermal Shift Assay (CESTA®) in vivo [65] (Pelago Bioscience AB, Solna, Sweden). Briefly, mice were orally administered vehicle or Vuti at 50 mg/kg (Vuti 50) or 100 mg/kg (Vuti 100) for 5 days. Brain tissue pieces were pulverized under frozen conditions in a mortar with liquid nitrogen. Equal amounts of tissue powder were placed into 8 or 12 separate PCR strip tubes for each set of the treated tissues and kept frozen until heat challenged. Pre-heated 60 µl HBSS buffer was added to the tubes and samples were immediately subjected to an 8 or 12-step heat challenge for 3 min between 37 °C and 59 °C. Samples were then snap-frozen in liquid nitrogen and lysed by freeze-thawing. After the first round of freeze thawing 1% Brij 35 was added to the samples and the samples were incubated with shaking for 20 min at 4 °C before the two last rounds of freeze thawing. After centrifugation at 20 000 x g for 20 min, 35 µl of the supernatant was mixed with 17,5 µl gel loading buffer (NuPAGE LDS sample buffer, Thermo Fisher Scientific, Waltham, MA, USA). Total protein lysate (6 µg) was separated on 12% SDS-PAGE gels. […] Western Blot detected PON2 protein (abcam, ab183718) normalized to SOD-1, a temperature stable protein band observed in the full protein gel detection with house-keeping gene.

[2] = target: T2, MAO-A (Homo sapiens, UniProt P21397); test: HRP/Amplex red based MAO-A enzyme activity assay; format: biochemical; settings: read-out: IC50, MAO-A assay, HRP/AR method
T2 sequence (P21397 1-527): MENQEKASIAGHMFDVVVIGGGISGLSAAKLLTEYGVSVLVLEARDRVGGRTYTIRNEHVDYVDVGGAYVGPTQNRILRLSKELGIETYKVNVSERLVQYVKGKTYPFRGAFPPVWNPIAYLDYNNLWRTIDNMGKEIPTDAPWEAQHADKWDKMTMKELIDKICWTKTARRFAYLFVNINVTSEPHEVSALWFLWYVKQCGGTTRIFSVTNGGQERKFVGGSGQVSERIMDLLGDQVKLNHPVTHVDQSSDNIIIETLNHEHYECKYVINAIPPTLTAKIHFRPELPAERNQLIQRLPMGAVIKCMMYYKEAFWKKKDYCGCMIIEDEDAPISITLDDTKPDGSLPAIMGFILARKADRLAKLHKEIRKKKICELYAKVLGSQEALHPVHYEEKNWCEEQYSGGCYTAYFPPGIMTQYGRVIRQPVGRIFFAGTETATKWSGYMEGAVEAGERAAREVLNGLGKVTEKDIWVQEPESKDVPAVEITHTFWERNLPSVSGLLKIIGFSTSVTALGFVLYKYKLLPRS
Description: MAO-A or MAO-B enzyme solutions were prepared by diluting 10 µL of a 2.5 mg/mL MAO-A or MAO-B stock into 10 mL of 50 mM sodium phosphate buffer (pH 7.4). A substrate assay mixture was then prepared by combining benzylamine (for MAO-B) or tyramine (for MAO-A) from a 100 mM stock (200 µL in 10 mL phosphate buffer, final concentration 1 mM) with 100 µL of a 20 mM AR reagent stock (final concentration 0.1 mM) and 100 µL of a 200 U/mL HRP stock (final concentration 1 U/mL) in 10 mL phosphate buffer. […] Next, 50 µL of the substrate assay mixture was added, and the reaction was carried out at 37 °C for 60 min. The production of resorufin was quantified by fluorescence measurement (excitation at 540 nm and emission at 580 nm).

[3] = target: T3, P-glycoprotein (P-gp, MDR1) (Homo sapiens, UniProt P08183); test: P-glycoprotein (P-gp) efflux assay in cell monolayers; format: in vitro ADME; settings: MDCKII, MDCKII-hMDR1 and Caco-2 monolayers, with and without P-gp inhibitor GF120918
T3 construct: expressed in transfected cells; host or cells: MDCKII-hMDR1 (canine kidney cells carrying human MDR1); also parental MDCKII and Caco-2 (endogenous human P-gp)
Description: P-gp efflux ratio was determined in MDCKII-hMDR1, MDCKII [61], and Caco-2 cell monolayer via LC-MS/MS analysis, in accordance with the standard FDA guideline on transporter-mediated drug interactions. 10 µM of GF120918 was used as P-gp inhibitor. The apical (A-to-B) and basolateral (B-to-A) permeability coefficient (Papp) were measured to yield the efflux ratio.
(§1) (a) Measurement of Vuti concentration in octanol and aqueous phase (pH7.4 phosphate buffer) via HPLC. The mean value of three replicates was used, and the limit of quantification (LOQ) value was used to calculate Log D as a log of concentration in the octanol phase divided by the concentration in the aqueous phase. (b) Efflux ratios (Papp(B→A)/Papp(A→B)) of Vuti in three types of cell monolayers, with or without P-glycoprotein (P-gp) inhibitor GF120918. (c) Schematic of 14C-labeling of Vuti. Attachment to the ethoxy group is warranted because it is robustly maintained throughout metabolism. (d) Plasma radioactivity concentration in Sprague-Dawley rats after a single administration of 10 mg/kg of 14C-Vuti (n = 3).

[4] = Octanol-water partition coefficient measurement; format: physicochemical; settings: octanol / pH 7.4 phosphate buffer, octanol / pH7.4 phosphate buffer, room temperature 24 h, aqueous phase below LOQ, LOQ value used, read-out: octanol-water partition coefficient (log D)
Description: 1000 µg/mL of Vuti was mixed with octanol, and an aliquot of 2 mL was mixed with the same amount of aliquot of 2 mL of pH7.4 phosphate buffer. The mixed solution was shaken at room temperature for 24 h, and the aqueous and octanol phase was separately analyzed for Vuti concentration via HLPC. The limit of quantification (LOQ) was 0.2012 µg/ml. Three replicates were performed. Because no concentration was detected in the aqueous phase, LOQ value was used; the actual concentration in the aqueous phase is expected to be lower than LOQ. The octanol-water partition coefficient Log D was calculated as log of concentration in octanol phase divided by concentration in aqueous phase.
as §1

T1 sequence (Q62086 whole entry): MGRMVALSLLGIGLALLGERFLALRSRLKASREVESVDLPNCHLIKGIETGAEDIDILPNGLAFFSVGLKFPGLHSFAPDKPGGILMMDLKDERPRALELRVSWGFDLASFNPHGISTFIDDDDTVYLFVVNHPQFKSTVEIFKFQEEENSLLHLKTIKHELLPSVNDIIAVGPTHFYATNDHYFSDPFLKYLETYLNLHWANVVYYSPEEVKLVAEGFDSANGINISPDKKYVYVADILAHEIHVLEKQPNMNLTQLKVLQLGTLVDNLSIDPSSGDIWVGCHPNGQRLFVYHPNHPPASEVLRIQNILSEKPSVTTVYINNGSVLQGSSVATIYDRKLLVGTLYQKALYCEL
T3 sequence (P08183 whole entry): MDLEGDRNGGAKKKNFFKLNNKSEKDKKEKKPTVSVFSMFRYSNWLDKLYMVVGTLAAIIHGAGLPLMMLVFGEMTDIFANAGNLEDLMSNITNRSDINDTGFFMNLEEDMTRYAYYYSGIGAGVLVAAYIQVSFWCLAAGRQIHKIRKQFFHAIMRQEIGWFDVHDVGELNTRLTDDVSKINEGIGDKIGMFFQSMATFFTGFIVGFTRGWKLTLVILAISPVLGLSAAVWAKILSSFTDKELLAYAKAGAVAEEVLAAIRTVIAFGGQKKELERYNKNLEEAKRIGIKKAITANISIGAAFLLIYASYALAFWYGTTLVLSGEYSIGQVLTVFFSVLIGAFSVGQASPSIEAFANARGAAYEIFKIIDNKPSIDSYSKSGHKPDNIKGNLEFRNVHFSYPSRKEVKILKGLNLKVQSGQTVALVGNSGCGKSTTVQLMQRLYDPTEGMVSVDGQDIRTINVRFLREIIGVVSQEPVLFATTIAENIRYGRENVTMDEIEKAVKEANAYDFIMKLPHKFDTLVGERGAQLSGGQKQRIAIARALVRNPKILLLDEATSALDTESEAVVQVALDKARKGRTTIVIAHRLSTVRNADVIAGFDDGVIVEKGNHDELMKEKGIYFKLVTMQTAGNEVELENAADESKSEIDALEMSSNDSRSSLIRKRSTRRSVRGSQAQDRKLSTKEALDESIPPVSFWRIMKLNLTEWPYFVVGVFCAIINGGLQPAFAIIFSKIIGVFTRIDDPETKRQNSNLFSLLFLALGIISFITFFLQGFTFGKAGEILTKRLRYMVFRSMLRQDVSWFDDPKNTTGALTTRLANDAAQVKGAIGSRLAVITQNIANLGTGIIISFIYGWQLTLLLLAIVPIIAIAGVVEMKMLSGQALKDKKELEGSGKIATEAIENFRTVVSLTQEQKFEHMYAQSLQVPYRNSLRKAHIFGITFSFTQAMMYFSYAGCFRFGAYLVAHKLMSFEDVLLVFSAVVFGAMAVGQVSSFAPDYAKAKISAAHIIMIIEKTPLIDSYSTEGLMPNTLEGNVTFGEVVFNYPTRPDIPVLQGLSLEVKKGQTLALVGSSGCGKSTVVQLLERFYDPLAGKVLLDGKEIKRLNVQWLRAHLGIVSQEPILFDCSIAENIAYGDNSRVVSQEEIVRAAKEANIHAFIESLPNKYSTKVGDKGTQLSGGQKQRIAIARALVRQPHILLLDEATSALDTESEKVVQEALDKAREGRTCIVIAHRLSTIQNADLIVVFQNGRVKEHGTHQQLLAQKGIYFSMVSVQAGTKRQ

**Q.** Which results are given for `CCOc1ccc(C2COc3c(ccc4c3CCC(C)(C)O4)C2)c(O)c1` (centres unmarked) [Vuti, Vutiglabridin]?
**A.** increase of the Tm of PON2 over vehicle group ([1]; Vuti 50 mg/kg for 5 days (Vuti 50)): approximately 1.3 °C; increase of the Tm of PON2 over vehicle group ([1]; Vuti 100 mg/kg for 5 days (Vuti 100)): ~1.4 °C; IC50 [2]: 288 µM; efflux ratio (Papp(B→A)/Papp(A→B)) [3]: low efflux ratio; logD at 24 h [4]: > 3.69
